Legend:
CD36 [1] = experiment: Cytoadherence assay: binding of infected erythrocytes made from AE1-modified erythrocytes to immobilized CD36; type: cell-based, human; conditions: for binding of treated IEs to CD36, in words: immobilized CD36; for percentage of bound IEs/mm^2 as compared to untreated cells, CD36: uninfected erythrocytes treated (0.5 mg/ml chymotrypsin, 100 μM DIDS or 0.25 mg/ml FMA), then infected, harvested after 40 hr, mean ±SD of triplicate
Procedure: (§1) Uninfected erythrocytes were treated with either 0.25 mg/ml fluorescein maleimide (FMA) (1 hr at 25° C.), 100 μM DIDS (1 hr at 37° C.) or with 0.5 mg/ml chymotrypsin (0.5 hr at 37° C.). Modified erythrocytes were infected and after 40 hr, mature stages were harvested and a standard cytoadherence assay using CD36 or TSP immobilized on slides was carried out. The numbers are the percentage of bound IEs/mm^2 as compared to untreated cells. Each value represents the mean ±SD of triplicate determinations.
(§2) Partially purified CD36 (CD36 fraction) was obtained from human platelets essentially by the method of Tandon et al., J. Biol Chem, 264:7570 (1989). However, the last purification step, using Ultrogel AcA-44, was omitted. TSP was purified as described in Layler et al., J Biol Chem, 253:8609 (1978). To remove excess amount of Triton X-100 in CD36 solution, 5 ml of a CD36 solution containing 0.1% Triton X-100 (initial concentration 268 μg protein/ml) was incubated with 0.5 g of SM-2 beads (Bio-Rad, Hercules, Calif.) at room temperature for 2 h and dialyzed against 500 ml of distilled water. Five microliters of the dialyzed solution was mounted onto multi-well glass slides, and incubated at 4° C. overnight. To immobilize TSP, 5 μl of TSP solution (50 μg/ml in 50 mM Bis-Tris, 100 mM NaCl, 25 mM calcium lactate, pH 7.4 (BTC)) was spotted on plastic slides (Permanox® plastic, Nunc, Neperville, Ill.) and incubated at 4° C. overnight. After removal of the solution by gentle aspiration, CD36- and TSP-immobilized spots were blocked with 1% BSA in phosphate buffered saline (PBS) at room temperature for 1 h.
(§3) Cytoadherence assays were performed as described in Crandall et al., Exp Parasitol, 73:362 (1991) (“Crandall 1991”). In the case of inhibition assay using peptides, the spots of immobilized protein were pretreated with 10 μl of peptide solution (200 μg/ml) in Bis-Tris buffer (50 mM Bis-Tris, 100 mM NaCl, 2 mM CaCl2, pH 6.6 for CD36; 50 mM Bis-Tris, 100 mM NaCl, 2 mM CaCl2, pH 7.4 for 677 cells; BTC for TSP) at 37° C. for 1 h. After removal of the peptide solution, the slides were placed in individual compartments of a partitioned plastic box containing 7 ml Bis-Tris buffer. Fifty microliters of packed red cells (5-10% parasitemia) was added to each compartment of the plastic box. After incubation at 37° C. for 90 min with gentle rocking, the red cell suspension was carefully aspirated. The slides were rinsed by adding 7 ml of the buffer and 5 min of rocking after which time the buffer was aspirated. The slides were washed three times, fixed, and stained as described in Crandall 1991. The number of bound infected red cells/mm^2 area of immobilized protein was counted by light microscopy.

TSP = experiment: Cytoadherence assay: binding of infected erythrocytes made from AE1-modified erythrocytes to immobilized TSP; type: cell-based; conditions: for binding of treated IEs to TSP, in words: immobilized TSP; for percentage of bound IEs/mm^2 as compared to untreated cells, TSP: uninfected erythrocytes treated (0.5 mg/ml chymotrypsin, 100 μM DIDS or 0.25 mg/ml FMA), then infected, harvested after 40 hr, mean ±SD of triplicate
Procedure: as §1, §2, §3

[2] = target: T1, CD36 transfected CHO cells (Homo sapiens, UniProt P16671); experiment: Interaction of biotin labeled DBR peptide with CD36 transfected CHO cells; type: binding; conditions: 40 μg/ml biotin labeled peptide, 1 hour at 37° C.
T1 construct: expressed in transfected cells; host or cells: CHO cells
Procedure: FIG. 2. Interaction of DBR peptide with CD36 transfected CHO cells. Cells were incubated for 1 hour at 37° C. with 40 μg/ml biotin labeled peptide, followed by 20 μg/ml Alexa-conjugated streptavidin.
To confirm that the DIDS binding region (DBR) of AE1 is involved in IE adhesion, two different kinds of in vitro assays were carried out.

CD36 [3] = target: T2, CD36 (Homo sapiens, UniProt P16671); experiment: Competitive binding assay: inhibition of IE binding to immobilized CD36 by DBR peptide; type: cell-based; conditions: immobilized CD36 incubated with peptide before cytoadherence assay
T2 construct: Partially purified CD36 (CD36 fraction) was obtained from human platelets; from tissue; host or cells: human platelets
Procedure: FIG. 3. […] Immobilized CD36 was incubated with the indicated concentrations of DBR peptide, and then a cytoadherence assay was conducted as shown in the legend of Table 1. Each value represents the mean ±SD of triplicate determinations.
as §2, with “After removal of the solution by gentle aspiration, CD36- and TSP-immobilized spots were blocked with 1% BSA in phosphate buffered saline (PBS) at room temperature for 1 h.” left out
Cytoadherence assays were performed as described in Crandall et al., Exp Parasitol, 73:362 (1991) (“Crandall 1991”). […] The number of bound infected red cells/mm^2 area of immobilized protein was counted by light microscopy.

[4] = tested on: immunoglobulins from individuals living in a malaria endemic region; experiment: ELISA: binding of IE-surface-eluted human immunoglobulins to immobilized DBR peptide; conditions: surface bound immunoglobulins eluted from IEs
Procedure: FIG. 4. Recognition of the DBR peptide by immunoglobulins from individuals living in a malaria endemic region (“immunes”). Human sera from either control or “immunes” were added to human erythrocytes infected with P. falciparum (“IEs”) and after incubation, the surface bound immunoglobulins were eluted using isotonic glycine buffer pH 3.0. Biotin labeled peptides were immobilized on 96 well plates using streptavidin, and the specific binding of the surface eluted immunoglobulins to the peptides was determined using alkaline phosphatase conjugated anti-human IgG.
To explore whether DBR is exposed as a consequence of parasite development, sera from individuals living in a region where malaria is endemic or from a control group was incubated with intact live IEs and the surface bound immunoglobulins eluted by a low pH treatment.

[5] = Tolerability in animals immunized with the peptide; type: in vivo, rabbit

T2 sequence (P16671 whole entry): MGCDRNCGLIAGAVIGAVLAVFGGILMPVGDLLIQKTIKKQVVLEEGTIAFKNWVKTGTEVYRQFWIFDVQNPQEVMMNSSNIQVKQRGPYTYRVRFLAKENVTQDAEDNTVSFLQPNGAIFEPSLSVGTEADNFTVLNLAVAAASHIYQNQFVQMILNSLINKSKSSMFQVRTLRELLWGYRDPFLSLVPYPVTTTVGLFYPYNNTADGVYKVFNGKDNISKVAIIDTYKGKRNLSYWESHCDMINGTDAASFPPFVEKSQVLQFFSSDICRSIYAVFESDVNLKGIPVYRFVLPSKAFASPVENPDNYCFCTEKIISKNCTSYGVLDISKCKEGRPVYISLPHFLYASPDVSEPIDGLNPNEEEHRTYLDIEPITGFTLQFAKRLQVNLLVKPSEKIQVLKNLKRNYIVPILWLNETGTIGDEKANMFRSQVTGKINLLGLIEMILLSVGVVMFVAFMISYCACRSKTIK
T1 sequence (P16671 whole entry): as above

Row | Compound | binding of treated IEs to CD36, in words (CD36 [1]) | percentage of bound IEs/mm^2 as compared to untreated cells, CD36 (CD36 [1]) | binding of treated IEs to TSP, in words (TSP) | percentage of bound IEs/mm^2 as compared to untreated cells, TSP (TSP) [percentage] | interaction with CD36 transfected CHO cells [2] | inhibition of IE binding to immobilized CD36 (CD36 [3]) | inhibition of IE binding to immobilized CD36 (CD36 [3]; listed as DBR peptides) | recognition of the DBR by immunoglobulins of individuals living in an endemic area [4] | anemia or other ill effects in immunized animals [5]
1 | O=C1OC2(c3ccc(O)cc3Oc3cc(O)ccc32)c2ccc(N3C(=O)C=CC3=O)cc21 [FMA, Fluorescein maleimide] | did not reduce the binding | 135.1 ± 12.9 percentage | did not reduce the binding | 180.9 ± 26.0 |  |  |  |  | 
2 | Chymotrypsin | significant reduction | 10.2 + 17.5 percentage | largely unaffected | 81.0 ± 17.7 |  |  |  |  | 
3 | YETFSKLIKIFQDH [DBR peptide] |  |  |  |  | interacted with high affinity and specificity | Concentration dependent inhibition | inhibited the binding | strong humoral immune response | no anemia or other ill effects
4 | O=S(=O)(O)c1cc(N=C=S)ccc1C=Cc1ccc(N=C=S)cc1S(=O)(=O)O [DIDS, 4,4′-diisothiocyanatostilbene-2,2′-disulfonic acid] | lower binding to CD36 | 33.2 ± 4.1 percentage | not to TSP | 93.5 ± 35.9 |  |  |  |  | 
